Here are results for 55 compounds from patent US20250171459A1, “2-METHYL-4',5'-DIHYDROSPIRO[PIPERIDINE-4,7'-THIENO[2,3-C]PYRAN] DERIVATIVES AS INHIBITORS OF APOL1 AND METHODS OF USING SAME” (Vertex Pharmaceuticals Incorporated, priority 2022, published 2025).

Structures are written as SMILES.

The target of this experiment is T1, APOL1 (Homo sapiens, UniProt O14791).
T1 sequence (O14791 1-398 S342G/I384M): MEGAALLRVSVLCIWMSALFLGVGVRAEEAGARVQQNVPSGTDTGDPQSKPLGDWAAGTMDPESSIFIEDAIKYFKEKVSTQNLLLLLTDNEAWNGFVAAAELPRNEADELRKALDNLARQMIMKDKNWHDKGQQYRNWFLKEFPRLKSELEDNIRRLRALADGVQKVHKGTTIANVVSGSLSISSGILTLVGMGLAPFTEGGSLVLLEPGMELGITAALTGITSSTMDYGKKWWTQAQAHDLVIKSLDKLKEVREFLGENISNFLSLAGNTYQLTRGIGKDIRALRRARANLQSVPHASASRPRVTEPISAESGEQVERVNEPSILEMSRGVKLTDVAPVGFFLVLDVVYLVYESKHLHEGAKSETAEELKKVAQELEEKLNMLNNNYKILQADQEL
Kind of experiment: MultiTox-Fluor Multiplex Cytotoxicity Assay in tet-inducible APOL1 T-REx-HEK293 cells (cell rescue, ratio of dead to live cells). The format is cell-based. The note with it: tet-inducible transgenic APOL1 T-REx-HEK293 cell lines, 50 ng/mL tet, 24 hours; read-out: IP50 (i.e., IC50 for cell proliferation). An outline of the steps: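 T-REx-HEK293 cells with tet-inducible APOL1 were treated with compound (10 μM top, 10-point 3-fold dilution, duplicate) plus 50 ng/mL tetracycline for 24 h at 37° C, in DMEM with 2% tet-free FBS. MultiTox-Fluor protease signals gave a dead/live ratio, normalized to no tet (100% viability) and tet alone (0%).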

In the case of `CCc1cc2c(s1)CCO[C@@]21CCN(Cc2cn(C3CC(O)C3)nn2)[C@@H](C)C1` (stereo partly shown) [Compound 152], the IC50 was 0.1 to 0.5 µM.

Regarding `CCc1cc2c(s1)CCO[C@@]21CCN(Cc2cn(CCCO)nn2)[C@@H](C)C1` [Compound 153], the IC50 was below 0.1 µM.

As for `CCc1cc2c(s1)CCO[C@@]21CCN(Cc2cn(CCO)nn2)[C@@H](C)C1` [Compound 154], the IC50 is below 0.1 µM.

In the case of `CCc1cc2c(s1)CCO[C@@]21CCN(Cc2cn(CC3(S(C)(=O)=O)CCOCC3)nn2)[C@@H](C)C1` [Compound 155], the IC50 was below 0.1 µM.

As for `CCc1cc2c(s1)CCO[C@@]21CCN(Cc2cn(CC3(S(C)(=O)=O)CC3)nn2)[C@@H](C)C1` [Compound 156], the IC50 was below 0.1 µM.

In the case of `CCc1cc2c(s1)CCO[C@@]21CCN(Cc2cn(CC3(S(C)(=O)=O)CCCC3)nn2)[C@@H](C)C1` [Compound 157], the IC50 was below 0.1 µM.

In the case of `CCc1cc2c(s1)CCO[C@@]21CCN(Cc2cn(CC3CCCCS3(=O)=O)nn2)[C@@H](C)C1` (stereo partly shown) [Compound 158], the IC50 is below 0.1 µM.

In the case of `CCc1cc2c(s1)CCO[C@@]21CCN(Cc2cn(CCS(=O)(=O)C(C)(C)C)nn2)[C@@H](C)C1` [Compound 159], the IC50 fell in the range of 0.1 to 0.5 µM.

In the case of `CCc1cc2c(s1)CCO[C@@]21CCN(Cc2cn(CCS(=O)(=O)C(C)C)nn2)[C@@H](C)C1` [Compound 160], the IC50 was below 0.1 µM.

Turning to `CCc1cc2c(s1)CCO[C@@]21CCN(Cc2cn(CC3CCCS3(=O)=O)nn2)[C@@H](C)C1` (stereo partly shown) [Compound 161], the IC50 is below 0.1 µM.

`CCc1cc2c(s1)CCO[C@@]21CCN(Cc2cn(C3CN(S(C)(=O)=O)C3)nn2)[C@@H](C)C1` [Compound 162]: the IC50 was below 0.1 µM.

Consider `CCc1cc2c(s1)CCO[C@@]21CCN(Cc2cn(C(C)c3nncn3CCOC)nn2)[C@@H](C)C1` (stereo partly shown) [Compound 163], for which the IC50 fell in the range of 0.5 to 1 µM.

`CCc1cc2c(s1)CCO[C@@]21CCN(Cc2cn(C(C)(C)C(=O)N3CCOCC3)nn2)[C@@H](C)C1` [Compound 164]: the IC50 was in the range of 0.5 to 1 µM.

On to `CCc1cc2c(s1)CCO[C@@]21CCN(Cc2cn(Cc3nc(C)no3)nn2)[C@@H](C)C1` [Compound 165], for which the IC50 was below 0.1 µM.

As for `CCc1cc2c(s1)CCO[C@@]21CCN(Cc2cn(C3C[C@@H](CO)NC3=O)nn2)[C@@H](C)C1` (stereo partly shown) [Compound 166], the IC50 fell in the range of 0.5 to 1 µM.

On to `CCc1cc2c(s1)CCO[C@@]21CCN(Cc2cn(Cc3cnn(C)n3)nn2)[C@@H](C)C1` [Compound 167], for which the IC50 was below 0.1 µM.

Consider `CCc1cc2c(s1)CCO[C@@]21CCN(Cc2cn(C(C)(C)CS(C)(=O)=O)nn2)[C@@H](C)C1` [Compound 168], for which the IC50 lay within 0.5 to 1 µM.

`CCc1cc2c(s1)CCO[C@@]21CCN(Cc2cn(CC(O)(CC)CCCO)nn2)[C@@H](C)C1` (stereo partly shown) [Compound 169]: the IC50 was below 0.1 µM.

Take `CCc1cc2c(s1)CCO[C@@]21CCN(Cc2cn(C3(CO)CCOC3)nn2)[C@@H](C)C1` (stereo partly shown) [Compound 170]: the IC50 is 0.5 to 1 µM.

Take `CCc1cc2c(s1)CCO[C@@]21CCN(Cc2cn(CC3CN(C(C)=O)CCO3)nn2)[C@@H](C)C1` (stereo partly shown) [Compound 171]: the IC50 was 0.1 to 0.5 µM.

Consider `CCc1cc2c(s1)CCO[C@@]21CCN(Cc2cn(C(CC)C(=O)N3CCOCC3)nn2)[C@@H](C)C1` (stereo partly shown) [Compound 172], for which the IC50 lay within 0.1 to 0.5 µM.

As to `CCc1cc2c(s1)CCO[C@@]21CCN(Cc2cn(CCN3C(=O)CCC3=O)nn2)[C@@H](C)C1` [Compound 173], the IC50 was 0.1 to 0.5 µM.

Turning to `CCc1cc2c(s1)CCO[C@@]21CCN(Cc2cn(CC3CN(C)C(=O)CO3)nn2)[C@@H](C)C1` (stereo partly shown) [Compound 174], the IC50 lay in the range of 0.1 to 0.5 µM.

Turning to `CCc1cc2c(s1)CCO[C@@]21CCN(Cc2cn(CCN3CCS(=O)(=O)CC3)nn2)[C@@H](C)C1` [Compound 175], the IC50 was 0.5 to 1 µM.

As for `CCc1cc2c(s1)CCO[C@@]21CCN(Cc2cn(Cc3nnc(C)o3)nn2)[C@@H](C)C1` [Compound 176], the IC50 was in the range of 0.1 to 0.5 µM.

Take `CCc1cc2c(s1)CCO[C@@]21CCN(Cc2cn(C(C)(CO)CO)nn2)[C@@H](C)C1` [Compound 177]: the IC50 is 0.5 to 1 µM.

With `CCc1cc2c(s1)CCO[C@@]21CCN(Cc2cn(CCOCCO)nn2)[C@@H](C)C1` [Compound 178], the IC50 lay within 0.1 to 0.5 µM.

In the case of `CCc1cc2c(s1)CCO[C@@]21CCN(Cc2cn(Cc3cn(C)nn3)nn2)[C@@H](C)C1` [Compound 179], the IC50 is below 0.1 µM.

Regarding `CCc1cc2c(s1)CCO[C@@]21CCN(Cc2cn(C3CC(=O)N(CCOC)C3)nn2)[C@@H](C)C1` (stereo partly shown) [Compound 180], the IC50 was below 0.1 µM.

With `CCc1cc2c(s1)CCO[C@@]21CCN(Cc2cn(CC(N)=O)nn2)[C@@H](C)C1` [Compound 181], the IC50 fell in the range of 0.1 to 0.5 µM.

On to `CCc1cc2c(s1)CCO[C@@]21CCN(Cc2cn(CCN(CCO)CCO)nn2)[C@@H](C)C1` [Compound 182], for which the IC50 is 0.1 to 0.5 µM.

In the case of `CCc1cc2c(s1)CCO[C@@]21CCN(Cc2cn(CCCS(C)(=O)=O)nn2)[C@@H](C)C1` [Compound 183], the IC50 is below 0.1 µM.

Turning to `CCc1cc2c(s1)CCO[C@@]21CCN(Cc2cn(Cc3nc(COC)no3)nn2)[C@@H](C)C1` [Compound 184], the IC50 is below 0.1 µM.

With `CCc1cc2c(s1)CCO[C@@]21CCN(Cc2cn(CCOc3nonc3C)nn2)[C@@H](C)C1` [Compound 185], the IC50 is below 0.1 µM.

On to `CCc1cc2c(s1)CCO[C@@]21CCN(Cc2cn(C(C)c3nnc4n3CCC4)nn2)[C@@H](C)C1` (stereo partly shown) [Compound 186], for which the IC50 lay in the range of 0.1 to 0.5 µM.

With `CCc1cc2c(s1)CCO[C@@]21CCN(Cc2cn(CC3CCCN(S(C)(=O)=O)C3)nn2)[C@@H](C)C1` (stereo partly shown) [Compound 187], the IC50 fell in the range of 0.1 to 0.5 µM.

In the case of `CCc1cc2c(s1)CCO[C@@]21CCN(Cc2cn(CC(O)c3c(C)nn(C)c3C)nn2)[C@@H](C)C1` (stereo partly shown) [Compound 189], the IC50 was below 0.1 µM.

`CCc1cc2c(s1)CCO[C@@]21CCN(Cc2cn(CC3(O)CCOCC3)nn2)[C@@H](C)C1` [Compound 190]: the IC50 is below 0.1 µM.

Turning to `CCc1cc2c(s1)CCO[C@@]21CCN(Cc2cn(CC(O)CN3CCOCC3)nn2)[C@@H](C)C1` (stereo partly shown) [Compound 191], the IC50 is below 0.1 µM.

With `CCc1cc2c(s1)CCO[C@@]21CCN(Cc2cn(C(C)(C)CCS(C)(=O)=O)nn2)[C@@H](C)C1` [Compound 192], the IC50 lay within 0.5 to 1 µM.

For `CCc1cc2c(s1)CCO[C@@]21CCN(Cc2cn(C(CO)[C@H](C)O)nn2)[C@@H](C)C1` (stereo partly shown) [Compound 193], the IC50 is 0.5 to 1 µM.

With `CCc1cc2c(s1)CCO[C@@]21CCN(Cc2cn(CCN3CCCC3=O)nn2)[C@@H](C)C1` [Compound 194], the IC50 lay within 0.5 to 1 µM.

For `CCc1cc2c(s1)CCO[C@@]21CCN(Cc2cn(CCOCCOCCO)nn2)[C@@H](C)C1` [Compound 195], the IC50 was in the range of 0.1 to 0.5 µM.

For `CCc1cc2c(s1)CCO[C@@]21CCN(Cc2cn(C3C[C@H](CO)NC3=O)nn2)[C@@H](C)C1` (stereo partly shown) [Compound 196], the IC50 fell in the range of 0.1 to 0.5 µM.

In the case of `CCc1cc2c(s1)CCO[C@@]21CCN(Cc2cn(CCOCCOCCOCCO)nn2)[C@@H](C)C1` [Compound 197], the IC50 lay in the range of 0.1 to 0.5 µM.

For the compound `CCc1cc2c(s1)CCO[C@@]21CCN(Cc2cnc(Cl)nc2)[C@@H](C)C1` [Compound 198, (2′S,4R)-1′-[(2-chloropyrimidin-5-yl)methyl]-2-ethyl-2′-methyl-spiro[6,7-dihydrothieno[3,2-c]pyran-4,4′-piperidine]], the IC50 lay in the range of 0.1 to 0.5 µM.

For the compound `CCc1cc2c(s1)CCO[C@@]21CCN(Cc2ccc(Cl)nc2)[C@@H](C)C1` [Compound 199, (2′S,4R)-1′-[(6-chloro-3-pyridyl)methyl]-2-ethyl-2′-methyl-spiro[6,7-dihydrothieno[3,2-c]pyran-4,4′-piperidine]], the IC50 was below 0.1 µM.

For the compound `CCc1cc2c(s1)CCO[C@@]21CCN(Cc2cnc(N[C@@H]3C=C[C@H](CO)C3)nc2)[C@@H](C)C1` [Compound 200, [(1R,4S)-4-[[5-[[(2′S,4R)-2-ethyl-2′-methyl-spiro[6,7-dihydrothieno[3,2-c]pyran-4,4′-piperidine]-1′-yl]methyl]pyrimidin-2-yl]amino]cyclopent-2-en-1-yl]methanol], the IC50 was below 0.1 µM.

Take `CCc1cc2c(s1)CCO[C@@]21CCN(Cc2cnc(NC(C)(C)CO)nc2)[C@@H](C)C1` [Compound 201, 2-[[5-[[(2′S,4R)-2-ethyl-2′-methyl-spiro[6,7-dihydrothieno[3,2-c]pyran-4,4′-piperidine]-1′-yl]methyl]pyrimidin-2-yl]amino]-2-methyl-propan-1-ol]: the IC50 is below 0.1 µM.

Regarding `CCc1cc2c(s1)CCO[C@@]21CCN(Cc2ccc(N[C@@H]3C=C[C@H](CO)C3)nc2)[C@@H](C)C1` [Compound 202], the IC50 was below 0.1 µM.

Consider `CCc1cc2c(s1)CCO[C@@]21CCN(Cc2cnc(N[C@H]3COC[C@@H]3O)nc2)[C@@H](C)C1` [Compound 203], for which the IC50 was below 0.1 µM.

Turning to `CCc1cc2c(s1)CCO[C@@]21CCN(Cc2cnc(N[C@H]3CC[C@H](O)C3)nc2)[C@@H](C)C1` [Compound 204], the IC50 was below 0.1 µM.

As to `CCc1cc2c(s1)CCO[C@@]21CCN(Cc2ccc(N[C@H]3CC[C@H](O)C3)nc2)[C@@H](C)C1` [Compound 205], the IC50 was below 0.1 µM.

As for `CCc1cc2c(s1)CCO[C@@]21CCN(Cc2cnc(NCc3ccc(O)cn3)nc2)[C@@H](C)C1` [Compound 206], the IC50 was below 0.1 µM.

For the compound `CCc1cc2c(s1)CCO[C@@]21CCN(Cc2cnc(N[C@H]3CCNC3=O)nc2)[C@@H](C)C1` [Compound 207], the IC50 is below 0.1 µM.
